Data from patent US8367687B2, “Pyrazole derivatives” (Novartis AG, priority 2007, dated 2013).
Where two headings read alike, the source gives them in different places.

Columns and labels:
Type in all cases: biochemical
CDK2 cyA = CDK2 cyA (Homo sapiens, UniProt P24941); assay: CDK2 cyA IMAP
hCDK1/B = hCDK1/B (Homo sapiens, UniProt P06493); assay: hCDK1/B
CDK4 = CDK4 (Homo sapiens, UniProt P11802); assay: CDK4 HTRF
[1] = Table 1, read-out: CDK2 cyA IMAP
[2] = Table 2, read-out: CDK2cyA IMAP/ IC50
[3] = Table 2, read-out: CDK4 HTRF/ IC50

Chain of CDK4 (P11802 whole entry): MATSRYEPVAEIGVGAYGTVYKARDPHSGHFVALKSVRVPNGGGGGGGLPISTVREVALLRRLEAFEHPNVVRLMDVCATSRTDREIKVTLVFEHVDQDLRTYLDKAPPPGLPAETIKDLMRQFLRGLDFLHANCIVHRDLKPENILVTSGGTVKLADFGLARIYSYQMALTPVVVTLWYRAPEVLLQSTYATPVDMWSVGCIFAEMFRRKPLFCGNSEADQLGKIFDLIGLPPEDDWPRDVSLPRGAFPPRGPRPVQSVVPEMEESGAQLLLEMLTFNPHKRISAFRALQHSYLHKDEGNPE
Chain of CDK4 (P24385 whole entry partner): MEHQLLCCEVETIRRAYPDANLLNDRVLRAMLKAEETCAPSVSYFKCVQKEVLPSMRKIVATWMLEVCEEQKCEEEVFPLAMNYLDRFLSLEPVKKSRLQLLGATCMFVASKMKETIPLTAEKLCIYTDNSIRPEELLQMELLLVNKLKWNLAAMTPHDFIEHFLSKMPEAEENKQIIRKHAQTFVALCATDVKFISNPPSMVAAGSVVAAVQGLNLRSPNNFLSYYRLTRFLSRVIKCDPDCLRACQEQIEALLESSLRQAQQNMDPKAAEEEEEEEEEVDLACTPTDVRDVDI
Chain of hCDK1/B (P06493 whole entry): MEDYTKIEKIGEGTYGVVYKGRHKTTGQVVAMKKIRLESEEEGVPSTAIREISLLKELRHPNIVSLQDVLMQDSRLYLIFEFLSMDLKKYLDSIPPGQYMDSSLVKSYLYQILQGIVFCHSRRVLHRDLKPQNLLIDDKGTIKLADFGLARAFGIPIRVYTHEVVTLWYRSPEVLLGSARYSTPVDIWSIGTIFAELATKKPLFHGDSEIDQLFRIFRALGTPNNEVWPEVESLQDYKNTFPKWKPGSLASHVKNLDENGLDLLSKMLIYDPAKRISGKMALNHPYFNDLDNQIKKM
Chain of hCDK1/B (P14635 whole entry partner): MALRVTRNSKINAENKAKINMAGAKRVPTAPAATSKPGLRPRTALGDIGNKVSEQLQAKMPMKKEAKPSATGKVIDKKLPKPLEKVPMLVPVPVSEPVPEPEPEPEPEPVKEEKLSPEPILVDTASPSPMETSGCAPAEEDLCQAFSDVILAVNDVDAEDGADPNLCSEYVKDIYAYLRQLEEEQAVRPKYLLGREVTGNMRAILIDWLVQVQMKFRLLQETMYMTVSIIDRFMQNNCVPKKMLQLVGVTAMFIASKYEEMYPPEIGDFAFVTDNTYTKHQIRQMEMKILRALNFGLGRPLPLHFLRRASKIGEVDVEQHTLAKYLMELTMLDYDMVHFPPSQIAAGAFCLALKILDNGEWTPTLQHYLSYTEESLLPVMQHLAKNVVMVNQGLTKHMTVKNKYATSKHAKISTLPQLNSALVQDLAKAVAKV

| SMILES | IC50 (CDK2 cyA; [1]) | IC50 (hCDK1/B; Table 1) | IC50 (CDK4; Table 1, read-out: CDK4 HTRF) | IC50 (CDK2 cyA; [2]) | IC50 (hCDK1/B; Table 2) | IC50 (CDK4; [3]) |
| --- | --- | --- | --- | --- | --- | --- |
| CCC(C)Nc1cc(-c2cn[nH]c2C(C)C)ccn1 (stereo not drawn) [Example 26] | < 1 µM | < 5 µM | < 0.5 µM | – | – | – |
| CC(C)c1[nH]ncc1-c1ccnc(NCCCCN(C)C)c1 [Example 18] | ≥ 15 µM | ≥ 15 µM | < 5 µM | – | – | – |
| CC(C)c1[nH]ncc1-c1ccnc(NCCCN2CCCC2)c1 [Example 19] | ≥ 15 µM | ≥ 15 µM | < 10 µM | – | – | – |
| CC(CN(C)C)Nc1nccc(-c2c[nH]nc2C(C)C)n1 (stereo not drawn) [Example 143] | – | – | – | ≥ 15 µM | < 10 µM | < 0.5 µM |
| CC(C)c1[nH]ncc1-c1ccnc(NCc2ccccc2C(F)(F)F)c1 [Example 50] | < 5 µM | < 5 µM | < 1 µM | – | – | – |
| CC(C)CCNc1cc(-c2cn[nH]c2C(C)C)ccn1 [Example 12] | < 5 µM | < 5 µM | < 1 µM | – | – | – |
| CC(C)c1[nH]ncc1-c1ccnc(NCc2ccc(F)cc2)c1 [Example 30] | < 5 µM | < 5 µM | < 5 µM | – | – | – |
| CC(C)c1n[nH]cc1-c1nc(NC2CCN(C)CC2)ncc1Br [Example 180] | – | – | – | < 5 µM | < 5 µM | < 1 µM |
| Cc1n[nH]cc1-c1ccnc(NC2CCCCCC2)n1 [Example 87] | – | – | – | < 5 µM | < 5 µM | < 1 µM |
| CC(C)c1[nH]ncc1-c1ccnc(NC2CCCCCC2)c1 [Example 40] | < 0.5 µM | < 1 µM | < 0.5 µM | – | – | – |
| c1ccc2c(c1)CC(Nc1cc(-c3cn[nH]c3C3CC3)ccn1)C2 [Example 69] | < 1 µM | < 1 µM | < 0.1 µM | – | – | – |
| CCC(C)Nc1nccc(-c2c[nH]nc2C(C)C)n1 (stereo not drawn) [Example 171] | – | – | – | < 0.5 µM | < 0.5 µM | < 0.05 µM |
| Cc1ccccc1CNc1cc(-c2cn[nH]c2C2CC2)ccn1 [Example 68] | < 5 µM | < 5 µM | < 0.1 µM | – | – | – |
| CC(C)c1n[nH]cc1-c1ccnc(NC(C)c2ccccc2)n1 (stereo not drawn) [Example 168] | – | – | – | < 5 µM | < 1 µM | < 0.05 µM |
| Cc1n[nH]cc1-c1ccnc(NC2CCN(C)CC2)n1 [Example 90] | – | – | – | < 15 µM | < 15 µM | < 0.5 µM |
| CC(C)c1n[nH]cc1-c1ccnc(NCc2ccccc2F)n1 [Example 165] | – | – | – | < 0.5 µM | < 0.5 µM | < 1 µM |
| Cc1n[nH]cc1-c1ccnc(NC2CCCNC2)n1 (stereo not drawn) [Example 138] | – | – | – | < 5 µM | < 5 µM | < 1 µM |
| CC(C)c1n[nH]cc1-c1ccnc(NCCCN(C)C)n1 [Example 167] | – | – | – | < 10 µM | < 5 µM | < 1 µM |
| CC(C)c1[nH]ncc1-c1ccnc(NCCc2cccnc2)c1 [Example 15] | < 5 µM | < 5 µM | < 0.5 µM | – | – | – |
| c1cc(-c2cn[nH]c2C2CCCC2)cc(NC2CCCC2)n1 [Example 3] | < 0.5 µM | < 1 µM | < 0.5 µM | – | – | – |
| c1cc(-c2cn[nH]c2C2CCCC2)cc(NCC2CC2)n1 [Example 57] | < 5 µM | < 5 µM | < 1 µM | – | – | – |
| Cc1nnc(C(C)Nc2nccc(-c3c[nH]nc3C(C)C)n2)[nH]1 (stereo not drawn) [Example 162] | – | – | – | < 15 µM | < 10 µM | < 0.5 µM |
| CC(C)c1nn(C)cc1-c1ccnc(NC2CCN(C)CC2)n1 [Example 181] | – | – | – | < 5 µM | < 5 µM | < 0.5 µM |
| CC(C)c1[nH]ncc1-c1ccnc(NCCCCN2CCCC2)c1 [Example 33] | ≥ 15 µM | ≥ 15 µM | < 5 µM | – | – | – |
| CC(C)c1n[nH]cc1-c1ccnc(NC2CC(C)(C)c3ccccc32)n1 (stereo not drawn) [Example 191] | – | – | – | < 5 µM | < 5 µM | < 0.5 µM |
| Cc1ccc(CNc2cc(-c3cn[nH]c3C(C)C)ccn2)cc1 [Example 28] | < 5 µM | < 5 µM | < 5 µM | – | – | – |

| SMILES | IC50 (CDK2 cyA; [1]) | IC50 (hCDK1/B; Table 1) | IC50 (CDK4; Table 1, read-out: CDK4 HTRF) | IC50 (CDK2 cyA; [2]) | IC50 (hCDK1/B; Table 2) | IC50 (CDK4; [3]) |
| --- | --- | --- | --- | --- | --- | --- |
| COCC(C)Nc1nccc(-c2c[nH]nc2C(C)C)n1 (stereo not drawn) [Example 152] | – | – | – | < 1 µM | < 1 µM | < 0.5 µM |
| Cc1ccccc1CNc1nccc(-c2c[nH]nc2C)n1 [Example 137] | – | – | – | < 10 µM | < 10 µM | < 5 µM |
| CCCCNc1cc(-c2cn[nH]c2C(C)C)ccn1 [Example 10] | < 5 µM | < 5 µM | < 0.5 µM | – | – | – |
| CC(C)c1n[nH]cc1-c1ccnc(NCc2ccccc2C(F)(F)F)n1 [Example 154] | – | – | – | < 5 µM | < 5 µM | < 5 µM |
| CC(C)c1[nH]ncc1-c1ccnc(NCC2CCCO2)c1 (stereo not drawn) [Example 13] | < 10 µM | < 5 µM | < 5 µM | – | – | – |
| Cc1cccc(CNc2cc(-c3cn[nH]c3C3CCCC3)ccn2)c1 [Example 62] | < 5 µM | < 5 µM | < 5 µM | – | – | – |
| COCCCNc1cc(-c2cn[nH]c2C(C)C)ccn1 [Example 11] | < 5 µM | < 5 µM | < 1 µM | – | – | – |
| CC(C)c1n[nH]cc1-c1ccnc(NCCN2CCCCC2)n1 [Example 173] | – | – | – | ≥ 15 µM | < 15 µM | < 0.5 µM |
| CC(C)c1[nH]ncc1-c1ccnc(NCC2CCCCCC2)c1 [Example 20] | < 5 µM | < 5 µM | < 5 µM | – | – | – |
| CN1CCC(Nc2cc(-c3cn[nH]c3C3CC3)ccn2)CC1 [Example 80] | ≥ 15 µM | < 15 µM | < 0.5 µM | – | – | – |
| Cc1ccccc1CNc1cc(-c2cn[nH]c2C(C)C)ccn1 [Example 14, [4-(5-Isopropyl-1H-pyrazol-4-yl)-pyridin-2-yl]-(2-methyl-benzyl)-amine] | < 5 µM | < 5 µM | < 0.1 µM | – | – | – |
| CC(C)c1n[nH]cc1-c1ccnc(NC(C)c2ccccn2)n1 (stereo not drawn) [Example 183] | – | – | – | < 10 µM | < 10 µM | < 0.5 µM |
| CCCNc1cc(-c2cn[nH]c2C(C)C)ccn1 [Example 44] | < 5 µM | < 5 µM | < 0.5 µM | – | – | – |
| CC(C)c1[nH]ncc1-c1ccnc(NCC2CCCCC2)c1 [Example 6] | < 5 µM | < 5 µM | < 5 µM | – | – | – |
| c1ccc2c(c1)CCC2Nc1cc(-c2cn[nH]c2C2CC2)ccn1 (stereo not drawn) [Example 70] | < 5 µM | < 5 µM | < 0.5 µM | – | – | – |
| Cc1n[nH]cc1-c1ccnc(NCCCn2ccnc2)n1 [Example 106] | – | – | – | < 10 µM | < 5 µM | < 5 µM |
| Cc1cccc(CNc2cc(-c3cn[nH]c3C(C)C)ccn2)c1 [Example 49] | < 5 µM | < 5 µM | < 5 µM | – | – | – |
| Cc1n[nH]cc1-c1ccnc(NC2CCCC2)n1 [Example 86] | – | – | – | < 5 µM | < 5 µM | < 1 µM |
| CC(C)c1[nH]ncc1-c1ccnc(NCCCO)c1 [Example 23] | < 5 µM | < 5 µM | < 5 µM | – | – | – |
| Cc1n[nH]cc1-c1ccnc(NC2CCCCC2)n1 [Example 84] | – | – | – | < 5 µM | < 5 µM | < 1 µM |
| CC(C)c1n[nH]cc1-c1ccnc(NC2CCN(C(=O)OC(C)(C)C)CC2)n1 [Example 140] | – | – | – | < 1 µM | < 0.5 µM | < 0.05 µM |
| CC(C)c1n[nH]cc1-c1ccnc(NCc2ccccc2OC(F)(F)F)n1 [Example 158] | – | – | – | ≥ 15 µM | < 5 µM | < 15 µM |
| Cc1n[nH]cc1-c1ccnc(NC2CCN(Cc3ccccc3)C2)n1 (stereo not drawn) [Example 114] | – | – | – | < 10 µM | < 10 µM | < 1 µM |
| CC(C)c1[nH]ncc1-c1ccnc(NC(CO)C(C)C)c1 (stereo not drawn) [Example 46] | < 15 µM | < 10 µM | < 0.5 µM | – | – | – |
| CC(C)CNc1cc(-c2cn[nH]c2C2CCCC2)ccn1 [Example 56] | < 1 µM | < 5 µM | < 0.5 µM | – | – | – |
| CC(C)c1n[nH]cc1-c1ccnc(NC2CCCc3cccnc32)n1 (stereo not drawn) [Example 186] | – | – | – | > 15 µM | ≥ 15 µM | < 0.5 µM |
